# From patent US12677832B2, “Oxadiazole compounds for controlling or preventing phytopathogenic fungi” (PI INDUSTRIES LTD., priority 2019, dated 2026)
# Key:
# [1] = test system: Colletotrichum capsici; assay: Colletotrichum capsici (Anthracnose) radial growth on potato dextrose agar; type: cell-based; conditions: Colletotrichum truncatum, 168 h, radial growth after seven days compared to untreated control
# [2] = test system: Phakopsora pachyrhizi; assay: Phakopsora pachyrhizi Test in Soybean (preventive spray); type: in vivo; conditions: preventive spray on Soybean plants, inoculated one day after treatment, disease severity vs untreated control
# Protocol: Example 7: Phakopsora pachyrhizi Test in Soybean Compounds were dissolved in 2% dimethyl sulfoxide/acetone and then mixed with water containing an emulsifier to a calibrated spray volume of 50 mL. This 50 mL spray solution was poured into spray bottles for further applications. To test the preventive activity of compounds, healthy young Soybean plants, raised in the greenhouse, were sprayed with the active compound preparation at the stated application rates inside the spray cabinets using hollow cone nozzles. One day after treatment, the plants were inoculated with a spore suspension containing 2×10^5Phakopsora pachyrhizi conidia. The inoculated plants were then kept in a greenhouse chamber at 22-24° C. temperature and 80-90% relative humidity for disease expression. A visual assessment of the compound's performance was carried out by rating the disease severity (0-100% scale) on treated plants 3, 7, 10 and 15 days after application. Efficacy (% control) of the compounds was calculated by comparing the disease rating in the treatment with the one of the untreated control. The sprayed plants were also assessed for plant compatibility by recording symptoms like necrosis, chlorosis and stunting.
# [3] = test system: Alternaria solani; assay: Alternaria solani (Early Blight of Tomato/Potato) radial growth on potato dextrose agar; type: cell-based; conditions: 168 h, radial growth after seven days compared to untreated control
# [4] = test system: Pyricularia oryzae; assay: microbe, parasite or virus in culture; type: cell-based; conditions: 168 h, read-out: control
Compound,inhibition of growth at 300 ppm [1],pest or weed control at 500 ppm [2],inhibition of growth at 300 ppm [3],inhibition of growth at 300 ppm [4]
"O=C(COc1cc(Cl)cc(Cl)c1)c1ccc(-c2noc(C(F)(F)F)n2)cc1 [Compound 15, 2-(3,5-dichlorophenoxy)-1-(4-(5-(trifluoromethyl)-1,2,4-oxadiazol-3-yl)phenyl)ethan-1-one]",≥ 70%,≥ 70%,–,–
"Cc1ccc(Cl)cc1OCC(=O)c1ccc(-c2noc(C(F)(F)F)n2)cc1 [Compound 17, 2-(5-chloro-2-methylphenoxy)-1-(4-(5-(trifluoromethyl)-1,2,4-oxadiazol-3-yl)phenyl)ethan-1-one]",–,≥ 70%,≥ 70%,–
"O=C(COc1ccc(F)cc1F)c1ccc(-c2noc(C(F)(F)F)n2)cc1 [Compound 18, 2-(2,4-difluorophenoxy)-1-(4-(5-(trifluoromethyl)-1,2,4-oxadiazol-3-yl)phenyl)ethan-1-one]",–,≥ 70%,≥ 70%,–
"O=C(COc1cccnc1)c1ccc(-c2noc(C(F)(F)F)n2)cc1 [Compound 21, 2-(pyridin-3-yloxy)-1-(4-(5-(trifluoromethyl)-1,2,4-oxadiazol-3-yl)phenyl)ethan-1-one]",–,≥ 70%,≥ 70%,–
"O=C(CNc1ccc(F)c(F)c1)c1ccc(-c2noc(C(F)(F)F)n2)cc1 [Compound 27, 2-((3,4-difluorophenyl)amino)-1-(4-(5-(trifluoromethyl)-1,2,4-oxadiazol-3-yl)phenyl)ethan-1-one]",–,≥ 70%,≥ 70%,–
"Cc1ccccc1OCC(=O)c1ccc(-c2noc(C(F)(F)F)n2)cc1 [Compound 39, 2-(o-tolyloxy)-1-(4-(5-(trifluoromethyl)-1,2,4-oxadiazol-3-yl)phenyl)ethan-1-one]",–,–,≥ 70%,–
"O=C(COc1ccc(Br)nc1)c1ccc(-c2noc(C(F)(F)F)n2)cc1 [Compound 49, 2-((6-bromopyridin-3-yl)oxy)-1-(4-(5-(trifluoromethyl)-1,2,4-oxadiazol-3-yl)phenyl)ethan-1-one]",–,≥ 70%,–,≥ 70%
"C=CCSCC(=O)c1ccc(-c2noc(C(F)(F)F)n2)cc1 [Compound 61, 2-(allylthio)-1-(4-(5-(trifluoromethyl)-1,2,4-oxadiazol-3-yl)phenyl)ethan-1-one]",–,–,≥ 70%,–
"Cc1ccccc1SCC(=O)c1ccc(-c2noc(C(F)(F)F)n2)cc1 [Compound 66, 2-(o-tolylthio)-1-(4-(5-(trifluoromethyl)-1,2,4-oxadiazol-3-yl)phenyl)ethan-1-one]",–,≥ 70%,–,≥ 70%
"O=C(CSc1ccncc1)c1ccc(-c2noc(C(F)(F)F)n2)cc1 [Compound 68, 2-(pyridin-4-ylthio)-1-(4-(5-(trifluoromethyl)-1,2,4-oxadiazol-3-yl)phenyl)ethan-1-one]",–,–,≥ 70%,–
"CC(C)SCC(=O)c1ccc(-c2noc(C(F)(F)F)n2)cc1 [Compound 69, 2-(isopropylthio)-1-(4-(5-(trifluoromethyl)-1,2,4-oxadiazol-3-yl)phenyl)ethan-1-one]",–,–,≥ 70%,≥ 70%
"O=C(CSc1nccs1)c1ccc(-c2noc(C(F)(F)F)n2)cc1 [Compound 73, 2-(thiazol-2-ylthio)-1-(4-(5-(trifluoromethyl)-1,2,4-oxadiazol-3-yl)phenyl)ethan-1-one]",–,–,–,≥ 70%
"O=C(C[S+]([O-])Cc1ccccc1)c1ccc(-c2noc(C(F)(F)F)n2)cc1 (stereo not drawn) [Compound 80, 2-(benzylsulfinyl)-1-(4-(5-(trifluoromethyl)-1,2,4-oxadiazol-3-yl)phenyl)ethan-1-one]",–,–,≥ 70%,≥ 70%
"Cc1cnc([S+]([O-])CC(=O)c2ccc(-c3noc(C(F)(F)F)n3)cc2)s1 (stereo not drawn) [Compound 83, 2-((5-methylthiazol-2-yl)sulfinyl)-1-(4-(5-(trifluoromethyl)-1,2,4-oxadiazol-3-yl)phenyl)ethan-1-one]",–,≥ 70%,–,≥ 70%
"CC(C)(C)[S+]([O-])CC(=O)c1ccc(-c2noc(C(F)(F)F)n2)cc1 (stereo not drawn) [Compound 91, 2-(tert-butylsulfinyl)-1-(4-(5-(trifluoromethyl)-1,2,4-oxadiazol-3-yl)phenyl)ethan-1-one]",–,–,≥ 70%,≥ 70%
"CC(C)S(=O)(=O)CC(=O)c1ccc(-c2noc(C(F)(F)F)n2)cc1 [Compound 106, 2-(isopropylsulfonyl)-1-(4-(5-(trifluoromethyl)-1,2,4-oxadiazol-3-yl)phenyl)ethan-1-one]",–,–,–,≥ 70%

Compound,inhibition of growth at 300 ppm [1],pest or weed control at 500 ppm [2],inhibition of growth at 300 ppm [3],inhibition of growth at 300 ppm [4]
"O=C(CS(=O)(=O)c1nccs1)c1ccc(-c2noc(C(F)(F)F)n2)cc1 [Compound 107, 2-(thiazol-2-ylsulfonyl)-1-(4-(5-(trifluoromethyl)-1,2,4-oxadiazol-3-yl)phenyl)ethan-1-one]",≥ 70%,–,–,–
"Cc1cccc(S(=O)(=O)CC(=O)c2ccc(-c3noc(C(F)(F)F)n3)cc2)c1 [Compound 110, 2-(m-tolylsulfonyl)-1-(4-(5-(trifluoromethyl)-1,2,4-oxadiazol-3-yl)phenyl)ethan-1-one]",–,–,–,≥ 70%
"O=C(CS(=O)(=O)c1ccncc1)c1ccc(-c2noc(C(F)(F)F)n2)cc1 [Compound 112, 2-(pyridin-4-ylsulfonyl)-1-(4-(5-(trifluoromethyl)-1,2,4-oxadiazol-3-yl)phenyl)ethan-1-one]",–,–,≥ 70%,≥ 70%
"O=C(CSCc1ccccc1)c1ccc(-c2noc(C(F)(F)F)n2)cn1 [Compound 118, 2-(benzylthio)-1-(5-(5-(trifluoromethyl)-1,2,4-oxadiazol-3-yl)pyridin-2-yl)ethan-1-one]",–,–,–,≥ 70%
"O=C(CSC1CCCC1)c1ccc(-c2noc(C(F)(F)F)n2)cn1 [Compound 119, 2-(cyclopentylthio)-1-(5-(5-(trifluoromethyl)-1,2,4-oxadiazol-3-yl)pyridin-2-yl)ethan-1-one]",–,–,≥ 70%,≥ 70%
"O=C(C[S+]([O-])c1cccc(F)c1)c1ccc(-c2noc(C(F)(F)F)n2)cn1 (stereo not drawn) [Compound 128, 2-((3-fluorophenyl)sulfinyl)-1-(5-(5-(trifluoromethyl)-1,2,4-oxadiazol-3-yl)pyridin-2-yl)ethan-1-one]",–,–,≥ 70%,≥ 70%
"COc1ccc([S+]([O-])CC(=O)c2ccc(-c3noc(C(F)(F)F)n3)cn2)cc1 (stereo not drawn) [Compound 129, 2-((4-methoxyphenyl)sulfinyl)-1-(5-(5-(trifluoromethyl)-1,2,4-oxadiazol-3-yl)pyridin-2-yl)ethan-1-one]",≥ 70%,–,–,–
"O=C(C[S+]([O-])c1c(Cl)cccc1Cl)c1ccc(-c2noc(C(F)(F)F)n2)cn1 (stereo not drawn) [Compound 132, 2-((2,6-dichlorophenyl)sulfinyl)-1-(5-(5-(trifluoromethyl)-1,2,4-oxadiazol-3-yl)pyridin-2-yl)ethan-1-one]",–,–,≥ 70%,–
"O=C(C[S+]([O-])C1CCCC1)c1ccc(-c2noc(C(F)(F)F)n2)cn1 (stereo not drawn) [Compound 133, 2-(cyclopentylsulfinyl)-1-(5-(5-(trifluoromethyl)-1,2,4-oxadiazol-3-yl)pyridin-2-yl)ethan-1-one]",–,–,≥ 70%,≥ 70%
"CN1CCN(CC(=O)c2ccc(-c3noc(C(F)(F)F)n3)cc2)CC1 [Compound 135, 2-(4-methylpiperazin-1-yl)-1-(4-(5-(trifluoromethyl)-1,2,4-oxadiazol-3-yl)phenyl)ethan-1-one]",≥ 70%,≥ 70%,≥ 70%,–
"O=C(CNc1cccc(C(F)(F)F)c1)c1ccc(-c2noc(C(F)(F)F)n2)cc1 [Compound 141, 1-(4-(5-(trifluoromethyl)-1,2,4-oxadiazol-3-yl)phenyl)-2-((3-(trifluoromethyl)phenyl)amino)ethan-1-one]",≥ 70%,–,–,–
"Cc1cccc(NCC(=O)c2ccc(-c3noc(C(F)(F)F)n3)cc2)c1 [Compound 144, 2-(m-tolylamino)-1-(4-(5-(trifluoromethyl)-1,2,4-oxadiazol-3-yl)phenyl)ethan-1-one]",≥ 70%,–,–,–
"COc1ccc(NCC(=O)c2ccc(-c3noc(C(F)(F)F)n3)cc2)cc1 [Compound 145, 2-((4-methoxyphenyl)amino)-1-(4-(5-(trifluoromethyl)-1,2,4-oxadiazol-3-yl)phenyl)ethan-1-one]",≥ 70%,–,–,≥ 70%
"Cc1ccccc1NCC(=O)c1ccc(-c2noc(C(F)(F)F)n2)cc1 [Compound 146, 2-(o-tolylamino)-1-(4-(5-(trifluoromethyl)-1,2,4-oxadiazol-3-yl)phenyl)ethan-1-one]",≥ 70%,–,–,–
"Nc1cc[n+](CC(=O)c2ccc(-c3noc(C(F)(F)F)n3)cc2)cc1 [Compound 148, 4-amino-1-(2-oxo-2-(4-(5-(trifluoromethyl)-1,2,4-oxadiazol-3-yl)phenyl)ethyl)pyridin-1-ium bromide]",–,–,–,≥ 70%
"Cc1nnc(SCC(=O)c2ccc(-c3noc(C(F)(F)F)n3)cc2)o1 [Compound 150, 2-((5-methyl-1,3,4-oxadiazol-2-yl)thio)-1-(4-(5-(trifluoromethyl)-1,2,4-oxadiazol-3-yl)phenyl)ethan-1-one]",–,–,≥ 70%,≥ 70%
